≈ marks a conversion by molar mass, not a printed value.
How the values were obtained:
[1] = ref [12]; cited from earlier work
[2] = Solubility in water (literature values); format: physicochemical; conditions: from cited values
[3] = system: T1, human serum albumin (HSA); test: Binding to human serum albumin (fluorescence quenching); conditions: for Ksv (Stern–Volmer quenching constant): pH 7.4
T1 construct: purchased Sigma-Aldrich
Excerpt: Fluorescence quenching induced by studied molecules is described using the well-known Stern-Volmer equation [53]:(1) F0/F=1+Kqτ0[Qu]=1+KSV[Qu] where: F0 and F are HSA fluorescence intensities before and after adding quencher, respectively, Kq is a bimolecular quenching constant, τ0 is life time of the fluorophore in the absence of quencher (the fluorescence life time of a biopolymer is about 5 × 10^−9 s, [Qu] is the quencher concentration, and KSV is the Stern–Volmer quenching constant (KSV = Kq × τ0). The plot of F0/F against [Qu] at 310 K is shown in Figure 3A,B. The Stern–Volmer plots are evidently linear in the 1–16 μM range of concentration for studied compounds.
The value of the binding constant Ka is crucial for understanding the distribution of the drug in plasma. A strong binding produces a decrease in plasma concentrations, […] the distribution and the pharmacological effect of the compound [55]. The apparent binding constant (Kb) and number of binding sites (n) can be calculated using the following equation:(2) log(F0−F/F)=logKb+nlog[Qu]
The interaction forces between a drug and a biomacromolecule may include hydrophobic forces, electrostatic interactions, van der Waals interactions, hydrogen bonds, etc. The thermodynamic parameters of binding reaction are the main evidence for confirming a binding force. In order to elucidate the binding mode, the binding constant for flavonoid–HSA complex formation was evaluated at four different temperatures. The thermodynamic parameters of the binding process can be calculated using the Van’t Hoff equation [60]:(3) lnKb=−ΔH/RT+ΔS/R
The enthalpy change ∆H is calculated on the basis of the slope of lnKb vs. […] plot. The free-energy change ΔG is estimated on the basis of the following equation:(4) ΔG=ΔH−TΔS=−RTlnKb where: ΔH ΔG and ΔS are enthalpy, free enthalpy and entropy change, respectively. R is the gas constant 8.314 J·mol^−1·K^−1.
Analysis of Q 7-MeGlu and Q interaction with human serum albumin (HSA) was performed according to the procedure described by Strugała et al.. The fluorescence measurements were performed on a Cary Eclipse fluorimeter equipped with 1.0 cm quartz cells and a thermostat bath. All quenching experiments were performed at 300, 305, 310 and 315 K for HSA in a phosphate buffer solution of pH 7.4 and final concentration 1.5 × 10^−5 M. The excitation wavelength was set at 280 nm (excitation of the Trp and Tyr), and the emission spectra were read at 285–460 nm. The excitation and emission slits were both set to 5 nm. Our method consisted in tracking the quenching of natural HSA fluorescence caused by Q 7-MeGlu and Q (of final concentrations 1, 2, 4, 6, 8, 10, 12, 14 and 16 µM) added successively. The stock solutions of Q 7-MeGlu and Q were prepared by dissolving in methanol. Control sample contained appropriate amount of methanol. […] The experiment was performed in three independent replicates (n = 3).

SMILES	solubility in water [1] [µg/mL]	solubility, fold lower than rutin [2]	Ksv (Stern–Volmer quenching constant) ([3]; T 300 K)	Ksv (Stern–Volmer quenching constant) ([3]; T 305 K)	Ksv (Stern–Volmer quenching constant) ([3]; T 310 K)	Ksv (Stern–Volmer quenching constant) ([3]; T 315 K)	KSV compared with KSV for Q [3]
O=c1c(O)c(-c2ccc(O)c(O)c2)oc2cc(O)cc(O)c12 [Quercetin, 3,3′,4′,5,7-pentahydroxyflavone]	0.512 (≈ 1.69 µM)	more than 240 fold	17.510 ± 0.152 * ·10^4 M^−1	16.719 ± 0.135 * ·10^4 M^−1	15.632 ± 0.109 * ·10^4 M^−1	13.718 ± 0.058 * ·10^4 M^−1	
CO[C@H]1[C@H](O)[C@@H](O)[C@H](Oc2cc(O)c3c(=O)c(O)c(-c4ccc(O)c(O)c4)oc3c2)O[C@@H]1CO [Q 7-MeGlu, quercetin 7-O-β-D-(4″-O-methyl)glucopyranoside]			3.837 ± 0.192 * ·10^4 M^−1	3.545 ± 0.025 * ·10^4 M^−1	3.412 ± 0.045 * ·10^4 M^−1	3.182 ± 0.013 * ·10^4 M^−1	approximately four times lower

Reference: paper PMC6151435, “Bioactivity In Vitro of Quercetin Glycoside Obtained in Beauveria bassiana Culture and Its Interaction with Liposome Membranes” (Molecules : A Journal of Synthetic Chemistry and Natural …, 2017)
